# From PubChem BioAssay (NCI)
#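 Dose response: 5 concentrations. Exposure: 48 h. Format: 96-well plates. Endpoint: linear interpolation; highest concentration if not reached. Definition used: TGI = concentration required for complete inhibition of growth.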
# Legend:
# Assay in all cases: NCI tumour cell line growth inhibition, 48 h
# RXF-631 renal = tested on: RXF-631 renal
# RPMI-8226 leukemia = tested on: RPMI-8226 leukemia
# U251 CNS = tested on: U251 CNS
# KM12 colon = tested on: KM12 colon
# SK-OV-3 ovarian = tested on: SK-OV-3 ovarian
# MOLT-4 leukemia = tested on: MOLT-4 leukemia
# EKVX NSCLC = tested on: EKVX NSCLC
# SK-MEL-2 melanoma = tested on: SK-MEL-2 melanoma
# OVCAR-3 ovarian = tested on: OVCAR-3 ovarian
# HOP-62 NSCLC = tested on: HOP-62 NSCLC
# SF-268 CNS = tested on: SF-268 CNS
# OVCAR-4 ovarian = tested on: OVCAR-4 ovarian
# LXFL 529 NSCLC = tested on: LXFL 529 NSCLC
# NCI-H23 lung = tested on: NCI-H23 lung
# NCI-H460 lung = tested on: NCI-H460 lung
# UACC-257 melanoma = tested on: UACC-257 melanoma
# SF-295 CNS = tested on: SF-295 CNS
# K-562 leukemia = tested on: K-562 leukemia
# HOP-18 NSCLC = tested on: HOP-18 NSCLC
# 786-0 renal = tested on: 786-0 renal
# OVCAR-8 ovarian = tested on: OVCAR-8 ovarian
# OVCAR-5 ovarian = tested on: OVCAR-5 ovarian
# DMS 273 small cell lung = tested on: DMS 273 small cell lung
# CAKI-1 renal = tested on: CAKI-1 renal
# A498 renal = tested on: A498 renal
# HL-60(TB) leukemia = tested on: HL-60(TB) leukemia
# HOP-92 NSCLC = tested on: HOP-92 NSCLC
# HT29 colon = tested on: HT29 colon
# SK-MEL-28 melanoma = tested on: SK-MEL-28 melanoma
# UACC-62 melanoma = tested on: UACC-62 melanoma
# COLO 205 colon = tested on: COLO 205 colon
# SNB-75 CNS = tested on: SNB-75 CNS
# SNB-19 CNS = tested on: SNB-19 CNS
# SK-MEL-5 melanoma = tested on: SK-MEL-5 melanoma
# SN12C renal = tested on: SN12C renal
# LOX IMVI melanoma = tested on: LOX IMVI melanoma
# HCT-15 colon = tested on: HCT-15 colon
# NCI-H226 lung = tested on: NCI-H226 lung
# M19-MEL melanoma = tested on: M19-MEL melanoma
# KM20L2 colon = tested on: KM20L2 colon
# IGROV1 ovarian = tested on: IGROV1 ovarian
# MALME-3M melanoma = tested on: MALME-3M melanoma
# DLD-1 colon = tested on: DLD-1 colon
# ACHN renal = tested on: ACHN renal
# A549 NSCLC = tested on: A549 NSCLC
# TK-10 renal = tested on: TK-10 renal
# SF-539 CNS = tested on: SF-539 CNS
# SNB-78 CNS = tested on: SNB-78 CNS
# UO-31 renal = tested on: UO-31 renal
# HCC-2998 colon = tested on: HCC-2998 colon
# HCT-116 colon = tested on: HCT-116 colon
# DMS 114 small cell lung = tested on: DMS 114 small cell lung
# CCRF-CEM leukemia = tested on: CCRF-CEM leukemia
# SW-620 colon = tested on: SW-620 colon
# M14 melanoma = tested on: M14 melanoma
# RXF 393 renal = tested on: RXF 393 renal
# XF 498 CNS = tested on: XF 498 CNS
# P388/ADR leukemia = tested on: P388/ADR leukemia
# SN12K1 renal = tested on: SN12K1 renal
# NCI/ADR-RES ovarian = tested on: NCI/ADR-RES ovarian
# MCF7 breast = tested on: MCF7 breast
# NCI-H522 lung = tested on: NCI-H522 lung
# P388 leukemia = tested on: P388 leukemia
compound,measurement,setting,value
COc1cccc(NC(=O)C(=O)C(C(C)=O)c2nc3ccc(Cl)cc3[nH]c2=O)c1 (stereo not drawn),TGI,RXF-631 renal,> 100 µM
same,TGI,RPMI-8226 leukemia,> 100 µM
same,TGI,U251 CNS,> 100 µM
same,TGI,KM12 colon,> 100 µM
same,TGI,SK-OV-3 ovarian,> 100 µM
same,TGI,MOLT-4 leukemia,> 100 µM
same,TGI,EKVX NSCLC,> 100 µM
same,TGI,SK-MEL-2 melanoma,> 100 µM
same,TGI,OVCAR-3 ovarian,> 100 µM
same,TGI,HOP-62 NSCLC,> 100 µM
same,TGI,SF-268 CNS,> 100 µM
same,TGI,OVCAR-4 ovarian,> 100 µM
same,TGI,LXFL 529 NSCLC,> 100 µM
same,TGI,NCI-H23 lung,> 100 µM
same,TGI,NCI-H460 lung,> 100 µM
same,TGI,UACC-257 melanoma,> 100 µM
same,TGI,SF-295 CNS,> 100 µM
same,TGI,K-562 leukemia,> 100 µM
same,TGI,HOP-18 NSCLC,> 100 µM
same,TGI,786-0 renal,> 100 µM
same,TGI,OVCAR-8 ovarian,> 100 µM
same,TGI,OVCAR-5 ovarian,> 100 µM
same,TGI,DMS 273 small cell lung,> 100 µM
same,TGI,CAKI-1 renal,> 100 µM
same,TGI,A498 renal,> 100 µM
same,TGI,HL-60(TB) leukemia,> 100 µM
same,TGI,HOP-92 NSCLC,> 100 µM
same,TGI,HT29 colon,> 100 µM
same,TGI,SK-MEL-28 melanoma,> 100 µM
same,TGI,UACC-62 melanoma,> 100 µM
same,TGI,COLO 205 colon,> 100 µM
same,TGI,SNB-75 CNS,> 100 µM
same,TGI,SNB-19 CNS,> 100 µM
same,TGI,SK-MEL-5 melanoma,> 100 µM
same,TGI,SN12C renal,> 100 µM
same,TGI,LOX IMVI melanoma,> 100 µM
same,TGI,HCT-15 colon,> 100 µM
same,TGI,NCI-H226 lung,> 100 µM
same,TGI,M19-MEL melanoma,> 100 µM
same,TGI,KM20L2 colon,> 100 µM
same,TGI,IGROV1 ovarian,> 100 µM
same,TGI,MALME-3M melanoma,> 100 µM
same,TGI,DLD-1 colon,> 100 µM
same,TGI,ACHN renal,> 100 µM
same,TGI,A549 NSCLC,> 100 µM
same,TGI,TK-10 renal,> 100 µM
same,TGI,SF-539 CNS,> 100 µM
same,TGI,SNB-78 CNS,> 100 µM
same,TGI,UO-31 renal,> 100 µM
same,TGI,HCC-2998 colon,> 100 µM
same,TGI,HCT-116 colon,> 100 µM
same,TGI,DMS 114 small cell lung,> 100 µM
same,TGI,CCRF-CEM leukemia,> 100 µM
same,TGI,SW-620 colon,> 100 µM
same,TGI,M14 melanoma,> 100 µM
same,TGI,RXF 393 renal,> 100 µM
CC(=O)O[C@H]1CC[C@@]2(C)[C@H](CC[C@@H]3[C@@H]2CC[C@]2(C)[C@@H](c4ccc(=O)oc4)C[C@H]4O[C@]342)C1,TGI,RPMI-8226 leukemia,5.1 µM
same,TGI,XF 498 CNS,3.27 µM
same,TGI,U251 CNS,4.6 µM
same,TGI,KM12 colon,36.8 µM
same,TGI,SK-OV-3 ovarian,5.68 µM
same,TGI,MOLT-4 leukemia,0.556 µM
same,TGI,EKVX NSCLC,2.39 µM
same,TGI,SK-MEL-2 melanoma,6.49 µM
same,TGI,OVCAR-3 ovarian,1.67 µM
same,TGI,HOP-62 NSCLC,2.06 µM
same,TGI,SF-268 CNS,1.29 µM
same,TGI,P388/ADR leukemia,125 µM
same,TGI,OVCAR-4 ovarian,3.86 µM
same,TGI,NCI-H23 lung,1.83 µM
same,TGI,NCI-H460 lung,0.878 µM
same,TGI,SN12K1 renal,1.83 µM
same,TGI,UACC-257 melanoma,6.89 µM
same,TGI,SF-295 CNS,2.97 µM
same,TGI,K-562 leukemia,13 µM
same,TGI,HOP-18 NSCLC,9.72 µM
same,TGI,OVCAR-8 ovarian,4.1 µM
same,TGI,OVCAR-5 ovarian,12.2 µM
same,TGI,DMS 273 small cell lung,1.47 µM
same,TGI,CAKI-1 renal,1.31 µM
same,TGI,A498 renal,4.96 µM
same,TGI,NCI/ADR-RES ovarian,3.82 µM
same,TGI,HL-60(TB) leukemia,0.592 µM
same,TGI,HOP-92 NSCLC,3.67 µM
same,TGI,HT29 colon,12.7 µM
same,TGI,SK-MEL-28 melanoma,20.9 µM
same,TGI,UACC-62 melanoma,3.46 µM
same,TGI,COLO 205 colon,14.2 µM
same,TGI,SNB-75 CNS,3.45 µM
same,TGI,SNB-19 CNS,9.36 µM
same,TGI,SK-MEL-5 melanoma,1.51 µM
same,TGI,SN12C renal,9.49 µM
same,TGI,LOX IMVI melanoma,7.67 µM
same,TGI,MCF7 breast,22.1 µM
same,TGI,HCT-15 colon,29.5 µM
same,TGI,NCI-H226 lung,7.75 µM
same,TGI,M19-MEL melanoma,7.17 µM
same,TGI,KM20L2 colon,12.5 µM
same,TGI,NCI-H522 lung,1.23 µM
same,TGI,IGROV1 ovarian,11.3 µM
same,TGI,MALME-3M melanoma,2.61 µM
same,TGI,DLD-1 colon,7.34 µM
same,TGI,A549 NSCLC,0.759 µM
same,TGI,SF-539 CNS,1.72 µM
same,TGI,SNB-78 CNS,4.8 µM
same,TGI,UO-31 renal,3.18 µM
same,TGI,HCC-2998 colon,8.88 µM
same,TGI,HCT-116 colon,4.63 µM
same,TGI,DMS 114 small cell lung,1.03 µM
same,TGI,CCRF-CEM leukemia,1.52 µM
same,TGI,SW-620 colon,3.1 µM
same,TGI,RXF 393 renal,0.673 µM
same,TGI,P388 leukemia,125 µM
